# Measurements from patent US20080274976A1 (priority 2002, published 2008).
# Where a SMILES comes first, the peptide text is derived from it. Bridges are numbered along the chain shown (N, C = ends). [ ]: non-standard residue; d: D form. Hyp = O=C(O)[C@@H]1C[C@@H](O)CN1
# Legend:
# TSha1 K^+ channel = format: cell-based, trout
# Shaker-Δ6-46 = Shaker-Δ6-46 (Drosophila melanogaster, UniProt P08510, DEL6-46); format: cell-based
# Chain of Shaker-Δ6-46 (P08510 1-655 with tags or gaps DEL6-46): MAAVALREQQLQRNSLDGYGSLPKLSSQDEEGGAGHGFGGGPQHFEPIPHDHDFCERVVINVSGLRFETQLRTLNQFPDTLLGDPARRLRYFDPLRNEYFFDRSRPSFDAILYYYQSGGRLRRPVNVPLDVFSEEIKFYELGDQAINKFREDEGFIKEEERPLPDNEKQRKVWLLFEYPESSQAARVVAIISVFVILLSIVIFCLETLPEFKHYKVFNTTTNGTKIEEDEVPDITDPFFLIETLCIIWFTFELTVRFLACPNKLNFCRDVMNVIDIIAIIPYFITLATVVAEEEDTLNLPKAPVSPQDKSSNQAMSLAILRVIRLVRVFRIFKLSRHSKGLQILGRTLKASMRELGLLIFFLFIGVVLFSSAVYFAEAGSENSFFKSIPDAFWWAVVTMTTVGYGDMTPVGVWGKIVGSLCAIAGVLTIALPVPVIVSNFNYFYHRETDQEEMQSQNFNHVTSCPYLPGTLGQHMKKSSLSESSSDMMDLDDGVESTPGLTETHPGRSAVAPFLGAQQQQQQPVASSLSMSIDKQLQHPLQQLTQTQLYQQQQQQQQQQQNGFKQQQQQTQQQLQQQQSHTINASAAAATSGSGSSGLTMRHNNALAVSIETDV
compound,measurement,setting,value
"CC(C)C[C@@H]1NC(=O)[C@H](CO)NC(=O)[C@@H]2CSSC[C@@H]3NC(=O)[C@@H]4C[C@@H](O)CN4C(=O)[C@H](CC(N)=O)NC(=O)[C@H](CCCNC(=N)N)NC(=O)[C@H](CCCCN)NC(=O)[C@H](CSSC[C@H](NC(=O)[C@H](CO)NC(=O)[C@@H]4C[C@@H](O)CN4C(=O)[C@@H](N)CC(C)C)C(=O)N2)NC(=O)[C@H](C)NC(=O)[C@@H]2C[C@@H](O)CN2C(=O)[C@H](C(C)C)NC(=O)[C@@H]2C[C@@H](O)CN2C(=O)[C@H](CSSC[C@@H](C(=O)N[C@H](C(N)=O)[C@@H](C)O)NC3=O)NC(=O)[C@H](CC(C)C)NC(=O)[C@H](CCCNC(=N)N)NC(=O)[C@H](CC(C)C)NC(=O)[C@H](CC(N)=O)NC1=O [κM-conotoxin RIIIK, LOSCCSLNLRLCOVOACKRNOCCT-NH2] (H-L[Hyp]SCCSLNLRLC[Hyp]V[Hyp]ACKRN[Hyp]CCT-NH2; disulfide 4-17, 5-22, 12-23)","k^(C)on, times higher than in the Shaker-Δ6-46 channel",TSha1 K^+ channel,about four
same,"k^(O)off for Tsha1, times smaller than in the Shaker-Δ6-46 channel",TSha1 K^+ channel,about 20 times
same,"k^(O)on in Tsha1, times higher than in the Shaker-Δ6-46 channel",TSha1 K^+ channel,three
same,"affinity for the open state (0 mV), times lower compared to the closed state",Shaker-Δ6-46,about three to four
same,k^(C)off,Shaker-Δ6-46,6.0 ± 3.0 s⁻¹
same,k^(C)on,Shaker-Δ6-46,4e+06 ± 700000 M⁻¹ s⁻¹
same,k^(O)off,Shaker-Δ6-46,90 ± 30 s⁻¹
same,k^(O)on,Shaker-Δ6-46,3e+07 ± 7e+06 M⁻¹ s⁻¹
